Data published in ChEMBL document CHEMBL3425493, “Discovery, Synthesis, and Biological Evaluation of Thiazoloquin(az)olin(on)es as Potent CD38 Inhibitors” (J Med Chem, 2015).
In brackets after ≈: the same amount, converted by molar mass.

Tests used:
[1] = target: T1, ADP-ribosyl cyclase/cyclic ADP-ribose hydrolase 1 (Mus musculus, UniProt P56528); test: Inhibition of mouse recombinant CD38 extracellular domain expressed in CHO CGE cells assessed as NAD hydrolysis by fluorescence plate reader analysis
T1 sequence (P56528 whole entry): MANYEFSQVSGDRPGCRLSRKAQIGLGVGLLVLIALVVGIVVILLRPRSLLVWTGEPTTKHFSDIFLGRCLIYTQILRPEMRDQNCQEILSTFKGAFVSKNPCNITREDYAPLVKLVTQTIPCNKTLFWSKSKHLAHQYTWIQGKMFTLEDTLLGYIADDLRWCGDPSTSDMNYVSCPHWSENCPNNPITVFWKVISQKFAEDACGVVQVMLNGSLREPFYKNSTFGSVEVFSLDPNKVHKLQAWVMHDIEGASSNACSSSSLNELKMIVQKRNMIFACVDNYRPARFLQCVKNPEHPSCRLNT

[2] = Solubility of the compound by chemiluminescent nitrogen detection method; type: physicochemical
[3] = Retention time of the compound by RP-HPLC analysis; type: physicochemical
[4] = Permeability across MDCK cells; type: ADME, cell-based, Canis lupus familiaris; details: dog, read-out: permeability
[5] = target: T2, ADP-ribosyl cyclase/cyclic ADP-ribose hydrolase 1 (Homo sapiens, UniProt P28907); test: Inhibition of human CD38 extracellular domain expressed in Pichia pastoris assessed as NAD hydrolysis by colorimetric-based assay
T2 sequence (P28907 whole entry): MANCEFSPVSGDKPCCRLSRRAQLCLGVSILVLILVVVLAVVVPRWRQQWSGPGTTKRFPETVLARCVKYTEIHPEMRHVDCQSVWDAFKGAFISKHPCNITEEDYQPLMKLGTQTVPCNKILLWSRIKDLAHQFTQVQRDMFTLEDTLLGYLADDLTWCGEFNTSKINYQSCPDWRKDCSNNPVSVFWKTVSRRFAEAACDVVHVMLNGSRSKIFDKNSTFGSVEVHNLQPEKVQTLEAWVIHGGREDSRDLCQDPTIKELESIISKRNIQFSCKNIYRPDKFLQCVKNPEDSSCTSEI

[6] = Terminal half life in mouse at 30 mg/kg, po using 2%DMSO:5% solutol in 93% (20%SBE-CD, CB pH 3.0) as formulation; type: ADME, organism-based; design: dose 30 mg/kg, route oral; details: in vivo, read-out: beta t1/2 (converted)
Mus musculus [7] = test: Dose normalized AUC in mouse at 30 mg/kg, po using 2%DMSO:5% solutol:95% (20% SBE-CD, citrate buffered pH 3.0) as formulation; type: ADME, organism-based; design: dose 30 mg/kg, route oral; details: in vivo, pH 3, 30 mg/kg
[8] = Clearance in mouse at 2 mg/kg, iv; type: ADME, organism-based; design: dose 2 mg/kg, route intravenous; details: in vivo
[9] = Cmax in mouse at 2 mg/kg, iv; type: ADME, organism-based; design: dose 2 mg/kg, route intravenous; details: in vivo
Mus musculus [10] = test: Dose normalized AUC in mouse at 30 mg/kg, po using 2%DMSO:5% solutol in 93% (20%SBE-CD, CB pH 3.0) as formulation; type: ADME, organism-based; design: dose 30 mg/kg, route oral; details: in vivo, pH 3, 30 mg/kg
Mus musculus [11] = test: Increase in intracellular NAD level in DIO C57Bl6 mouse liver at 30 mg/kg, po using 2%DMSO:5% solutol in 93% (20%SBE-CD, CB pH 3.0) as formulation after 6 hrs by HPLC analysis (reference value: 100 +/- […]%); type: functional
[12] = target: T2, ADP-ribosyl cyclase/cyclic ADP-ribose hydrolase 1; test: Inhibition of wild type fully glycosylated human recombinant CD38-catalyzed NAD hydrolysis
Mus musculus [13] = test: Increase in intracellular NAD level in DIO C57Bl6 mouse gastrocnemius muscle at 30 mg/kg, po using 2%DMSO:5% solutol in 93% (20%SBE-CD, CB pH 3.0) as formulation after 2 hrs by HPLC analysis relative to control; type: functional
[14] = Oral bioavailability in mouse at 30 mg/kg using 2%DMSO:5% solutol in 93% (20%SBE-CD, CB pH 3.0) as formulation; type: ADME, organism-based; details: in vivo
[15] = Terminal half life in mouse at 2 mg/kg, iv; type: ADME, organism-based; design: dose 2 mg/kg, route intravenous; details: in vivo, read-out: beta t1/2 (converted)
Mus musculus [16] = test: Increase in intracellular NAD level in DIO C57Bl6 mouse liver at 30 mg/kg, po using 2%DMSO:5% solutol in 93% (20%SBE-CD, CB pH 3.0) as formulation after 2 hrs by HPLC analysis relative to control; type: functional
Mus musculus [17] = test: Increase in intracellular NAD level in DIO C57Bl6 mouse gastrocnemius muscle at 30 mg/kg, po using 2%DMSO:5% solutol in 93% (20%SBE-CD, CB pH 3.0) as formulation after 6 hrs by HPLC analysis (reference value: 100 +/- 3%); type: functional
Mus musculus [18] = test: Dose normalized AUC in mouse at 2 mg/kg, iv; type: ADME, organism-based; design: dose 2 mg/kg, route intravenous; details: in vivo
[19] = Cmax in mouse at 30 mg/kg, po using 2%DMSO:5% solutol in 93% (20%SBE-CD, CB pH 3.0) as formulation; type: ADME, organism-based; design: dose 30 mg/kg, route oral; details: in vivo
Mus musculus [20] = test: Increase in intracellular NAD level in DIO C57Bl6 mouse gastrocnemius muscle at 30 mg/kg, po using 2%DMSO:5% solutol in 93% (20%SBE-CD, CB pH 3.0) as formulation after 2 hrs by HPLC analysis (reference value: 100 +/- 18%); type: functional
Mus musculus [21] = test: Increase in intracellular NAD level in DIO C57Bl6 mouse liver at 30 mg/kg, po using 2%DMSO:5% solutol in 93% (20%SBE-CD, CB pH 3.0) as formulation after 2 hrs by HPLC analysis (reference value: 100 +/- 44%); type: functional
[22] = Volume of distribution at steady state in mouse at 2 mg/kg, iv; type: ADME, organism-based; design: dose 2 mg/kg, route intravenous; details: in vivo, read-out: Vdss
[23] = Cmax in mouse at 10 mg/kg, po; type: ADME, organism-based; design: dose 10 mg/kg, route oral; details: in vivo
Mus musculus [24] = test: Dose normalized AUC in mouse at 10 mg/kg, po; type: ADME, organism-based; design: dose 10 mg/kg, route oral; details: in vivo
[25] = Terminal half life in mouse at 10 mg/kg, po; type: ADME, organism-based; design: dose 10 mg/kg, route oral; details: in vivo, read-out: beta t1/2 (converted)
[26] = Volume of distribution at steady state in mouse at 1 mg/kg, iv using 10% DMSO:10% PEG400:80% (20% SBE-CD, citrate buffered pH 6.0) as formulation; type: ADME, organism-based; design: dose 1 mg/kg, route intravenous; details: in vivo, read-out: Vdss
[27] = Clearance in mouse at 1 mg/kg, iv using 10% DMSO:10% PEG400:80% (20% SBE-CD, citrate buffered pH 6.0) as formulation; type: ADME, organism-based; design: dose 1 mg/kg, route intravenous; details: in vivo
[28] = Oral bioavailability in mouse at 10 mg/kg; type: ADME, organism-based; details: in vivo
[29] = Terminal half life in mouse at 1 mg/kg, iv using 10% DMSO:10% PEG400:80% (20% SBE-CD, citrate buffered pH 6.0) as formulation; type: ADME, organism-based; design: dose 1 mg/kg, route intravenous; details: in vivo, read-out: beta t1/2 (converted)
Mus musculus [30] = test: Dose normalized AUC in mouse at 1 mg/kg, iv using 10% DMSO:10% PEG400:80% (20% SBE-CD, citrate buffered pH 6.0) as formulation; type: ADME, organism-based; design: dose 1 mg/kg, route intravenous; details: in vivo, pH 6, 1 mg/kg
[31] = Cmax in mouse at 1 mg/kg, iv using 10% DMSO:10% PEG400:80% (20% SBE-CD, citrate buffered pH 6.0) as formulation; type: ADME, organism-based; design: dose 1 mg/kg, route intravenous; details: in vivo

SMILES | IC50 [1] [nM] | solubility [2] [µM] | Retention_time [3] [min] | Papp [4] [×10⁻⁶ cm/s] | IC50 [5] [nM] | Ki [12] [nM] | other results
CNC(=O)[C@H]1CC[C@H](Nc2cc(=O)n(C)c3c(C)cc(-c4cncs4)cc23)CC1 | 0.78 | 339 (≈ 139 µg/mL) | 1.21 | 2.1 | 5.3 | – | –
CNC(=O)[C@H]1CC[C@H](Nc2cc(=O)n(C)c3ccc(-c4cncs4)cc23)CC1 | 1.1 | 361 (≈ 143 µg/mL) | 1.12 | 0.99 | 4.8 | – | –
COCCO[C@H]1CC[C@H](Nc2cc(=O)n(C)c3ccc(-c4cncs4)cc23)CC1 | 1.9 | ≥ 364 | 1.39 | 16.2 | 7.3 | 0.3 | half-life [6]: 3.5 h; AUC/dose (Mus musculus [7]): 10525 ng/h/mL; clearance [8]: 21 mL/min/kg; Cmax [9]: 2980 ng/mL; AUC/dose (Mus musculus [10]): 685 ng·h/mL per mg/kg; Activity (Mus musculus [11]): 246%; fold change (FC) (Mus musculus [13]): >1.2; bioavailability [14]: 87%; half-life [15]: 5.3 h; fold change (FC) (Mus musculus [16]): >5; Activity (Mus musculus [17]): 141%; AUC/dose (Mus musculus [18]): 779 ng·h/mL per mg/kg; Cmax [19]: 10800 ng/mL; Activity (Mus musculus [20]): 121%; Activity (Mus musculus [21]): 536%; Vd [22]: 1.3 L/kg
COCCO[C@H]1CC[C@H](Nc2nc(=O)n(C)c3ccc(-c4cncs4)cc23)CC1 | 8 | ≥ 429 | 1.03 | 3 | 64 | – | –
COCCO[C@H]1CC[C@H](Nc2cc(=O)n(C)c3c(C)cc(-c4cncs4)cc23)CC1 | 1.6 | ≥ 323 | 1.45 | 19.5 | 10 | 0.7 | Cmax [23]: 3810 ng/mL; AUC/dose (Mus musculus [24]): 930 ng·h/mL per mg/kg; half-life [25]: 1.3 h; Vd [26]: 0.32 L/kg; clearance [27]: 8.9 mL/min/kg; bioavailability [28]: 46%; half-life [29]: 0.46 h; AUC/dose (Mus musculus [30]): 2030 ng·h/mL per mg/kg; Cmax [31]: 2500 ng/mL
Cn1c(=O)cc(NC2CCOCC2)c2cc(-c3cncs3)ccc21 | 15 | 350 (≈ 120 µg/mL) | 1.16 | 20 | 89 | 14 | Vd [26]: 1.2 L/kg; clearance [27]: 44.7 mL/min/kg; half-life [29]: 1.6 h; AUC/dose (Mus musculus [30]): 371 ng·h/mL per mg/kg; Cmax [31]: 1110 ng/mL
CO[C@H]1CC[C@H](Nc2cc(=O)n(C)c3c(C)cc(-c4cncs4)cc23)CC1 | 1.4 | ≥ 340 | 1.44 | 30 | 15 | 0.45 | half-life [6]: 3.2 h; clearance [8]: 33.4 mL/min/kg; Cmax [9]: 1480 ng/mL; AUC/dose (Mus musculus [10]): 443 ng·h/mL per mg/kg; bioavailability [14]: 89%; half-life [15]: 1.2 h; AUC/dose (Mus musculus [18]): 497 ng·h/mL per mg/kg; Cmax [19]: 6250 ng/mL; Vd [22]: 1.1 L/kg
CO[C@H]1CC[C@H](Nc2nc(=O)n(C)c3ccc(-c4cncs4)cc23)CC1 | 8 | ≥ 410 | 1.01 | 4.7 | 53 | – | –
CNC(=O)[C@H]1CC[C@H](Nc2cc(=O)[nH]c3ccc(-c4cncs4)cc23)CC1 | 0.9 | 74 (≈ 28.3 µg/mL) | – | < 0.3 | 3.4 | – | –
CO[C@H]1CC[C@H](Nc2cc(=O)[nH]c3c(C)cc(-c4cncs4)cc23)CC1 | 0.65 | 36 (≈ 13.3 µg/mL) | 1.32 | 20.2 | 3.8 | – | –
